{
  "source": "ChEMBL document CHEMBL4118122",
  "about": "“Identification and biological evaluation of thiazole-based inverse agonists of RORγt” (Bioorg Med Chem Lett, 2018)",
  "key": {"[1]": {"biological_target": "Melanocortin receptor 4 (Homo sapiens, UniProt P32245)", "sequence (P32245 whole entry)": "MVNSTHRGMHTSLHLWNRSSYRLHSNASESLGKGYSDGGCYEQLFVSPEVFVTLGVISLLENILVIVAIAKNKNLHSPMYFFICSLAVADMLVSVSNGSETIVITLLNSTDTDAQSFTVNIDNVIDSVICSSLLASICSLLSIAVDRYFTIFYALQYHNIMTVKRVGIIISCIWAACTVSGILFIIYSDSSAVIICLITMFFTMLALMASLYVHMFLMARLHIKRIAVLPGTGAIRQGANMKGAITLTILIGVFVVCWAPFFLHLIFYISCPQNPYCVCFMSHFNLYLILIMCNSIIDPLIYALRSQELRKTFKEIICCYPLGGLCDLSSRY", "experiment": "Displacement of [125I]NDP-alpha -MSH from human recombinant MC4 receptor after 120 mins by scintillation counting analysis"}, "[2]": {"biological_target": "Neuropeptide Y receptor type 1 (Homo sapiens) (UniProt P25929)", "sequence (P25929 whole entry)": "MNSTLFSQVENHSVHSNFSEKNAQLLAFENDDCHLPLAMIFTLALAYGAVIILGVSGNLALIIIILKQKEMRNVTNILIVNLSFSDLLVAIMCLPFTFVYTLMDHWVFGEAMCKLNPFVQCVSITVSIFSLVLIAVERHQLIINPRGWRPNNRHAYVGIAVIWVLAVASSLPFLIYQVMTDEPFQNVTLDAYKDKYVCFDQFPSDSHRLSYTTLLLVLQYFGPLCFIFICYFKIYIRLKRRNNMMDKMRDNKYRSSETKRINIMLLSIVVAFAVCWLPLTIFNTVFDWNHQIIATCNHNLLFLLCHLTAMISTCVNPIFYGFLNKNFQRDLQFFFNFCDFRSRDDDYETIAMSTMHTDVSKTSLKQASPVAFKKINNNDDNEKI", "experiment": "Displacement of [125I]peptide YY from human Y1 receptor at 10 uM after 120 mins by scintillation counting analysis relative to control"}, "[3]": {"biological_target": "Somatostatin receptor (Mus musculus) (UniProt P30935+O08858+P30875+P30873+P49660)", "sequence (P30935 whole entry)": "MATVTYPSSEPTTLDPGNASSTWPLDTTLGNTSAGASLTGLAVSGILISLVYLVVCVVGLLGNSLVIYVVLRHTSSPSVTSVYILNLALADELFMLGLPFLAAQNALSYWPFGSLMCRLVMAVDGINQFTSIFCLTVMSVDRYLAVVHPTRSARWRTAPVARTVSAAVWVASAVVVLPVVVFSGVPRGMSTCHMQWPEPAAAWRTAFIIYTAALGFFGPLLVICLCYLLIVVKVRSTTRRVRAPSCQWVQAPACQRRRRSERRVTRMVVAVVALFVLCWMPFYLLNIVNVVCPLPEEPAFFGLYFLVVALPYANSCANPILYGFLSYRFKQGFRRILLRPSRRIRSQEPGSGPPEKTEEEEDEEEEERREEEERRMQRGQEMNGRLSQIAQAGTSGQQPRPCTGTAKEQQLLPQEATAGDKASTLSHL", "sequence (O08858 whole entry)": "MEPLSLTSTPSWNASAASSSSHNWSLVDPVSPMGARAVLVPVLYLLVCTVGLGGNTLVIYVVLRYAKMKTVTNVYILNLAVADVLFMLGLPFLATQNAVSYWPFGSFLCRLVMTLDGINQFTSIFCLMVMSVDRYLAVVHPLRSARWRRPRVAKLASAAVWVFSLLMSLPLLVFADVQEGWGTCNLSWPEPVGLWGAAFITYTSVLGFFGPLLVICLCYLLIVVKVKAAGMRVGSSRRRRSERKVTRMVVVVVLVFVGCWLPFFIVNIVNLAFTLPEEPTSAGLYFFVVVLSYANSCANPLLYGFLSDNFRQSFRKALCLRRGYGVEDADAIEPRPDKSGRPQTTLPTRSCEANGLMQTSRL", "sequence (P30875 whole entry)": "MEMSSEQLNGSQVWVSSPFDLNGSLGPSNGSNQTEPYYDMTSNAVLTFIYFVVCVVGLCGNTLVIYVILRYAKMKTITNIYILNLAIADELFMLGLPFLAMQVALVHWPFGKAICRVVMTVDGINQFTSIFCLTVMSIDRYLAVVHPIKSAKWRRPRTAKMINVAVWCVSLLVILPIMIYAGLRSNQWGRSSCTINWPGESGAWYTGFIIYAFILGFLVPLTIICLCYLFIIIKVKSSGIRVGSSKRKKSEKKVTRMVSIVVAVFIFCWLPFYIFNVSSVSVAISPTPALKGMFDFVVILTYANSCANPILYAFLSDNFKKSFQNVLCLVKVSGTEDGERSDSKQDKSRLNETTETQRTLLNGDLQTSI", "sequence (P30873 whole entry)": "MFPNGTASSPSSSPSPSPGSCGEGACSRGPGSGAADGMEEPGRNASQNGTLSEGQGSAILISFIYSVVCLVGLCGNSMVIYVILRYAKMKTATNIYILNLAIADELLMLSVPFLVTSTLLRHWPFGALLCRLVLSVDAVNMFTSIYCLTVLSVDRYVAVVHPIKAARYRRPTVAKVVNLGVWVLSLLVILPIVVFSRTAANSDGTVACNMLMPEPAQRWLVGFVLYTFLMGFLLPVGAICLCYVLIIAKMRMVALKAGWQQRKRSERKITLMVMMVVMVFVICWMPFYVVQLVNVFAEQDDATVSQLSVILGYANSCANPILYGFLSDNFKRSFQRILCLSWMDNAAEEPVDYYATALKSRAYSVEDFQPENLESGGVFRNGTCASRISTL", "sequence (P49660 with tags, fused parts or gaps)": "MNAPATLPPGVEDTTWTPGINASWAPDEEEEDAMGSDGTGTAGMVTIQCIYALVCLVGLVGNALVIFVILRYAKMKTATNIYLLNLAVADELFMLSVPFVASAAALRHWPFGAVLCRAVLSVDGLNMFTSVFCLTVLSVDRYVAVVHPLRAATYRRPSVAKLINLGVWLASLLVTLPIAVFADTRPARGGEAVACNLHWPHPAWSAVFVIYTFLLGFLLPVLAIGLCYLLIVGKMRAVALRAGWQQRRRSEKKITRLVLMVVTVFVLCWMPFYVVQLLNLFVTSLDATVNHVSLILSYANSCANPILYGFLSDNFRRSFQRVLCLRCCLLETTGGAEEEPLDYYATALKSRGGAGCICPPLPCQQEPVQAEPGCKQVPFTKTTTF", "experiment": "Displacement of [125I]Tyr11-somatostatin-14 from mouse SST receptor at 1 uM after 60 mins by scintillation counting analysis relative to control", "format": "protein assay"}, "[4]": {"biological_target": "Serine/threonine-protein kinase Chk1 (Homo sapiens) (UniProt O14757)", "sequence (O14757 whole entry)": "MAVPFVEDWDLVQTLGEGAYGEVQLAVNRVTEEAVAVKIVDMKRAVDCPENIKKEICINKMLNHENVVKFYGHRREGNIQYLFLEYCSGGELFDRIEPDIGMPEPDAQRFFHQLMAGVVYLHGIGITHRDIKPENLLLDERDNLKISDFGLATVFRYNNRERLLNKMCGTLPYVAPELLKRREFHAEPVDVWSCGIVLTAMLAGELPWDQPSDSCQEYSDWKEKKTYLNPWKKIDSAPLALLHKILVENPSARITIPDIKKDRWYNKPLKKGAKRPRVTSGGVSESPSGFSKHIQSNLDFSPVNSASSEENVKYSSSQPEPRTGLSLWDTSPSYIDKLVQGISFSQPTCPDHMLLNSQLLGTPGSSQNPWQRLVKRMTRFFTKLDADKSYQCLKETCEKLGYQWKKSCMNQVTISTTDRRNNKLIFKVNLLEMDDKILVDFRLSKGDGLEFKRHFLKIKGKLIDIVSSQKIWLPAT", "experiment": "Inhibition of recombinant full length His-tagged human CHK1 expressed in baculovirus expression system at 10 uM in presence of ATP relative to control"}, "[5]": {"biological_target": "Serine/threonine-protein kinase pim-2 (Homo sapiens) (UniProt Q9P1W9)", "sequence (Q9P1W9 whole entry, looked up)": "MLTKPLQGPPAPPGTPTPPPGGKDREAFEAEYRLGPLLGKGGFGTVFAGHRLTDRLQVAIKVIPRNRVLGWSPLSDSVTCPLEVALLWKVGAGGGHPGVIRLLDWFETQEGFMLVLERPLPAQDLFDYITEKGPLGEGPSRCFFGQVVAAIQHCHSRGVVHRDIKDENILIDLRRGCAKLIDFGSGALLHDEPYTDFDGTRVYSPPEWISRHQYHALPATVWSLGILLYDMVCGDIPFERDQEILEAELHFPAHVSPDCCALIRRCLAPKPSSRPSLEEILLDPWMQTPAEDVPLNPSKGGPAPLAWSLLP", "experiment": "Inhibition of recombinant full length GST-tagged human PIM2 expressed in baculovirus expression system at 10 uM in presence of ATP relative to control"}, "[6]": {"biological_target": "Substance-K receptor (Homo sapiens) (UniProt P21452)", "sequence (P21452 whole entry)": "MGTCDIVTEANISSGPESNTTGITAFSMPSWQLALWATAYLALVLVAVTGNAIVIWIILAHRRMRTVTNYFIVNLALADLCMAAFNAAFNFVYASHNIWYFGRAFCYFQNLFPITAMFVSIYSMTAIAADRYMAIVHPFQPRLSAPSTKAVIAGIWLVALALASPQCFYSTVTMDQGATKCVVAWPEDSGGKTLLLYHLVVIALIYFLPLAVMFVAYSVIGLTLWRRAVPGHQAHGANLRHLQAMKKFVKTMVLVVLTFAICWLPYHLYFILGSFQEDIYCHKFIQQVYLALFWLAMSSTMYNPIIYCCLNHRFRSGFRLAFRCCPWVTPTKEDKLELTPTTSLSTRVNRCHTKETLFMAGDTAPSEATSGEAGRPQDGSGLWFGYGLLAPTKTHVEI", "experiment": "Displacement of [125I]NKA from human recombinant NK2 receptor at 1 uM after 60 mins by scintillation counting analysis relative to control"}, "[7]": {"biological_target": "5-hydroxytryptamine receptor 3A (Homo sapiens) (UniProt P46098)", "sequence (P46098 whole entry)": "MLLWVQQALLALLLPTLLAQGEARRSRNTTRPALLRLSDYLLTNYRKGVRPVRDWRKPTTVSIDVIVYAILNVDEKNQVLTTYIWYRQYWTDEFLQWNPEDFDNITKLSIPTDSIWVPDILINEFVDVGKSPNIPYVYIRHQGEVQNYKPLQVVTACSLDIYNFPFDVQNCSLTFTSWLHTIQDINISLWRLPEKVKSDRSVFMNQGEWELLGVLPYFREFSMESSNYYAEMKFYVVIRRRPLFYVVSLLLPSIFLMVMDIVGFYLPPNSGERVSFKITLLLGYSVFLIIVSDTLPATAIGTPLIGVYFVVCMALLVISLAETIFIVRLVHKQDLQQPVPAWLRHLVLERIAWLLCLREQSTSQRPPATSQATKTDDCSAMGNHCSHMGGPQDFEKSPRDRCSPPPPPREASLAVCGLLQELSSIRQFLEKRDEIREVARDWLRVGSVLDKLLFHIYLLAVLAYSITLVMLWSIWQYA", "experiment": "Displacement of [3H]BRL 43694 from human recombinant 5-HT3 receptor at 1 uM after 120 mins by scintillation counting analysis relative to control"}},
  "note": "pIC50: −log10 of the molar value.",
  "data": [
    {"smiles": "CC(C)(C)NS(=O)(=O)c1ccc(-c2sc(C(=O)N[C@H]3C[C@H](C(=O)O)C3)nc2CC2CCCCC2)c2ccccc12", "values": [
      {"measurement": "pIC50", "setting": "[1]", "result": 9.68},
      {"measurement": "inhibition", "setting": "[2]", "result": "< 10", "unit": "%"},
      {"measurement": "inhibition", "setting": "[3]", "result": "< 10", "unit": "%"},
      {"measurement": "inhibition", "setting": "[4]", "result": 1, "unit": "%"},
      {"measurement": "inhibition", "setting": "[5]", "result": 4, "unit": "%"},
      {"measurement": "inhibition", "setting": "[6]", "result": "< 10", "unit": "%"},
      {"measurement": "inhibition", "setting": "[7]", "result": "< 10", "unit": "%"}
    ]}
  ]
}
